# Measurements taken from patent US20070173490A1, “Novel solid forms of (4R)-1-[2-chloro-5-fluorobenzoyl)amino-3-methoxybenzoyl]-1,2,3,5- tetrahydro-spiro[4h-1-benzazepine-4,1'-[2]cyclopentene]-3'-carboxylic acid” (priority 2006, published 2007).
# “Also recorded” adds a separate entry of the source.
# What was measured:
# Assay type in all cases: physicochemical
# [1] = Solid form conversion on heating/desolvation via DSC; conditions: conversions occurred via DSC, upon heating/desolvation
# Experimental: DSC analysis of each sample was performed using a Q100 Differential Scanning Calorimeter (TA Instruments, New Castle, Del., U.S.A.), which uses Thermal Advantage™ version 4.1.0 for operating instrument. In addition, the analysis software used was Universal Analysis 2000 for Windows 2000/XP, version 4.1D; Build 4.1.0.16 (Copyright © 1998-2004 TA Instruments-Water LLC).
# For all of the DSC analyses, an aliquot of a sample was weighed into either a standard aluminium pan (Pan part #900786.091; lid part #900779.901) or a hermetic aluminium pan (Pan part #900793.901; lid part #900794.901 (TA Instruments, New Castle Del. USA)). Non-solvated samples were loaded into standard pans and were sealed either by crimping for dry samples or press fitting for wet samples (such as slurries). Solvated samples (including hydrates) were loaded into hermetic pans and hermetically sealed. The sample pan was loaded into the Q100 Differential Scanning Calorimeter, which is equipped with an autosampler, and a thermogram was obtained by individually heating the same using the control software at a rate of 10° C./minute from Tmin (typically 25° C.) to Tmax (typically 275° C.) using an empty aluminium pan as a reference. Dry nitrogen (compressed nitrogen, grade 4.8 (BOC Gases, Murray Hill, N.J. USA)) was used as a sample purge gas and was set at a flow rate of 50 mL/minute. Thermal transitions were viewed and analyzed using the analysis software provided with the instrument.
# At least 10 forms were discovered based on distinguished PXRD patterns (all conversions occurred via DSC; such conversions can also occur under ambient conditions at a slower pace).
# [2] = Crystallization solvents list and observations (solubility of the compound in solvents); conditions: about 20 mg in 4 ml vial, about 40° C.
# Experimental: About 20 mg of (4R)-1-[4-(2-chloro-5-fluorobenzoyl)amino-3-methoxybenzoyl]-1,2,3,5-tetrahydro-spiro[4H-1-benzazepine-4,1′-[2]cyclopentene]-3′-carboxylic acid was transferred into a 4 ml vial. Solvent was added in the vial to make the solution or suspension depending on solubility at about 40° C. on hot plate. The vial was removed from hot plate and kept at room temperature. The caps were put on without sealing. All the vials were placed in the hood for slow evaporation. After the solvent evaporated, the solid was investigated using PXRD, DSC, TGA, and microscope.
# [3] = Water slurry study of polymorph stability
# Experimental: Form 6 was crystallized from acetone, butanol, ethanol, isopropyl alcohol, hexane, and water. It melted with a peak at about 203-204° C. and a heat of fusion of about 75-80 J/g.
smiles,measurement,setting,value
"COc1cc(C(=O)N2CC[C@]3(C=C(C(=O)O)CC3)Cc3ccccc32)ccc1NC(=O)c1cc(F)ccc1Cl [Form 8, (4R)-1-[4-(2-chloro-5-fluorobenzoyl)amino-3-methoxybenzoyl]-1,2,3,5-tetrahydro-spiro[4H-1-benzazepine-4,1′-[2]cyclopentene]-3′-carboxylic acid]",Solid form conversion (physical stability),[1],converted to form 1
same,Solid form conversion (physical stability),[1]; listed as 8,(solvate converted to form 1)
same,Solid form conversion (physical stability),[1]; listed as form 8,converted to form 1
"COc1cc(C(=O)N2CC[C@]3(C=C(C(=O)O)CC3)Cc3ccccc32)ccc1NC(=O)c1cc(F)ccc1Cl [Compound of Formula (I), (4R)-1-[4-(2-chloro-5-fluorobenzoyl)amino-3-methoxybenzoyl]-1,2,3,5-tetrahydro-spiro[4H-1-benzazepine-4,1′-[2]cyclopentene]-3′-carboxylic acid]",Observation (solubility),"[2]; 1,4-Dioxane",Good solubility
same,Observation (solution or suspension),"[2]; 1,4-Dioxane",Solution
same,Observation (solubility),[2]; Acetone,Good solubility
same,Observation (solution or suspension),[2]; Acetone,Solution
same,Observation (solubility),[2]; Acetonitrile,Good solubility
same,Observation (solution or suspension),[2]; Acetonitrile,Solution
same,Observation (solubility),[2]; Butanol,Medium solubility
same,Observation (solution or suspension),[2]; Butanol,Solution
same,Observation (solubility),[2]; Dichloromethane,Good solubility
same,Observation (solution or suspension),[2]; Dichloromethane,Solution
same,Observation (solubility),[2]; Ethanol,Medium solubility
same,Observation (solution or suspension),[2]; Ethanol,Solution
same,Observation (solubility),[2]; Ethyl acetate,Good solubility
same,Observation (solution or suspension),[2]; Ethyl acetate,Solution
same,Observation (solubility),[2]; Hexane,Poor solubility
same,Observation (solution or suspension),[2]; Hexane,Suspension
same,Observation (solubility),[2]; Isopropyl alcohol,Medium solubility
same,Observation (solution or suspension),[2]; Isopropyl alcohol,Solution
same,Observation (solubility),[2]; Methanol,Medium solubility
same,Observation (solution or suspension),[2]; Methanol,Solution
same,Observation (solubility),[2]; Nitromethane,Good solubility
same,Observation (solution or suspension),[2]; Nitromethane,Solution
same,Observation (solubility),[2]; Toluene,Solution is not clear
same,Observation (solution or suspension),[2]; Toluene,Precipitation
same,Observation (solubility),[2]; Water,Poor wetability
same,Observation (solution or suspension),[2]; Water,Suspension
"COc1cc(C(=O)N2CC[C@]3(C=C(C(=O)O)CC3)Cc3ccccc32)ccc1NC(=O)c1cc(F)ccc1Cl [Form 4, (4R)-1-[4-(2-chloro-5-fluorobenzoyl)amino-3-methoxybenzoyl]-1,2,3,5-tetrahydro-spiro[4H-1-benzazepine-4,1′-[2]cyclopentene]-3′-carboxylic acid]",Solid form conversion (physical stability),[1]; listed as 4,(solvate converted to an amorphous form)
"COc1cc(C(=O)N2CC[C@]3(C=C(C(=O)O)CC3)Cc3ccccc32)ccc1NC(=O)c1cc(F)ccc1Cl [Form 6, (4R)-1-[4-(2-chloro-5-fluorobenzoyl)amino-3-methoxybenzoyl]-1,2,3,5-tetrahydro-spiro[4H-1-benzazepine-4,1′-[2]cyclopentene]-3′-carboxylic acid]",Thermodynamic stability among polymorphs,"[3]; from highest melting temperature and heat of fusion, confirmed by water slurry study",thermodynamically most stable polymorph
"COc1cc(C(=O)N2CC[C@]3(C=C(C(=O)O)CC3)Cc3ccccc32)ccc1NC(=O)c1cc(F)ccc1Cl [Form 2, (4R)-1-[4-(2-chloro-5-fluorobenzoyl)amino-3-methoxybenzoyl]-1,2,3,5-tetrahydro-spiro[4H-1-benzazepine-4,1′-[2]cyclopentene]-3′-carboxylic acid]",Solid form conversion (physical stability),[1]; listed as 2,(solvate converted to form 6)
"COc1cc(C(=O)N2CC[C@]3(C=C(C(=O)O)CC3)Cc3ccccc32)ccc1NC(=O)c1cc(F)ccc1Cl [Form 1, (4R)-1-[4-(2-chloro-5-fluorobenzoyl)amino-3-methoxybenzoyl]-1,2,3,5-tetrahydro-spiro[4H-1-benzazepine-4,1′-[2]cyclopentene]-3′-carboxylic acid]",Solid form conversion in water slurry,"[3]; equal amount of forms 1, 5 and 6 mixed in water for more than 76 hours",converted to form 6
"COc1cc(C(=O)N2CC[C@]3(C=C(C(=O)O)CC3)Cc3ccccc32)ccc1NC(=O)c1cc(F)ccc1Cl [Form 7, (4R)-1-[4-(2-chloro-5-fluorobenzoyl)amino-3-methoxybenzoyl]-1,2,3,5-tetrahydro-spiro[4H-1-benzazepine-4,1′-[2]cyclopentene]-3′-carboxylic acid]",Solid form conversion (physical stability),[1],converted to form 1; also recorded: ultimately to form 6
same,Solid form conversion (physical stability),[1]; listed as 7,(solvate converted to form 1)
same,Solid form conversion (physical stability),[1]; listed as form 7,converted to form 1
"COc1cc(C(=O)N2CC[C@]3(C=C(C(=O)O)CC3)Cc3ccccc32)ccc1NC(=O)c1cc(F)ccc1Cl [Form 3, (4R)-1-[4-(2-chloro-5-fluorobenzoyl)amino-3-methoxybenzoyl]-1,2,3,5-tetrahydro-spiro[4H-1-benzazepine-4,1′-[2]cyclopentene]-3′-carboxylic acid]",Solid form conversion (physical stability),[1],converted to form 5
same,Solid form conversion (physical stability),[1]; listed as 3,(solvate converted to form 5)
